# Data as given in PubChem BioAssay AID192 (DTP/NCI, 2004).
# Several values for one entry are separate records, joined by “and”; a condition that tells them apart may be missing. Equal entries are not always repeated. Inconclusive results and toxic doses are left out.
# Tested on: BDF1 mice, B16 melanoma ip, median survival T/C
# Assay: NCI In Vivo Anticancer Drug Screen. Data for tumor model B16 Melanoma (intraperitoneal) in B6D2F1 (BDF1) mice
# Details: endpoint: median survival time, higher = longer survival
# How it was run: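 Tumor-bearing mice received test compound or vehicle. Survival or tumor size was then measured in both groups. The treated-group figure was divided by the control-group figure.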
# [1] = dose: 100.0 mg/kg/injection, schedule: Q01DX009 (ip), vehicle: Klucel (hydroxypropylcellulose) (HPC)
# [2] = dose: 200.0 mg/kg/injection, schedule: Q01DX009 (ip), vehicle: Klucel (hydroxypropylcellulose) (HPC)
# [3] = dose: 400.0 mg/kg/injection, schedule: Q01DX009 (ip), vehicle: Klucel (hydroxypropylcellulose) (HPC)
# [4] = dose: 25.0 mg/kg/injection, schedule: Q01DX009 (ip), vehicle: saline with Tween-80
# [5] = dose: 50.0 mg/kg/injection, schedule: Q01DX009 (ip), vehicle: saline with Tween-80
# [6] = dose: 100.0 mg/kg/injection, schedule: Q01DX009 (ip), vehicle: saline with Tween-80
# [7] = dose: 200.0 mg/kg/injection, schedule: Q01DX009 (ip), vehicle: saline with Tween-80
# [8] = dose: 100.0 mg/kg/injection, schedule: Q04DX003 (ip), vehicle: saline with Tween-80
# [9] = dose: 200.0 mg/kg/injection, schedule: Q04DX003 (ip), vehicle: saline with Tween-80
# [10] = dose: 400.0 mg/kg/injection, schedule: Q04DX003 (ip), vehicle: saline with Tween-80
# [11] = dose: 25.0 mg/kg/injection, schedule: Q01DX009 (ip), vehicle: Klucel (hydroxypropylcellulose) (HPC)
# [12] = dose: 50.0 mg/kg/injection, schedule: Q01DX009 (ip), vehicle: Klucel (hydroxypropylcellulose) (HPC)
# [13] = dose: 100.0 mg/kg/injection, schedule: Q04DX003 (ip), vehicle: Klucel (hydroxypropylcellulose) (HPC)
# [14] = dose: 200.0 mg/kg/injection, schedule: Q04DX003 (ip), vehicle: Klucel (hydroxypropylcellulose) (HPC)
# [15] = dose: 400.0 mg/kg/injection, schedule: Q04DX003 (ip), vehicle: Klucel (hydroxypropylcellulose) (HPC)
# [16] = dose: 75.0 mg/kg/injection, schedule: Q01DX009 (ip), vehicle: Klucel (hydroxypropylcellulose) (HPC)
# [17] = dose: 150.0 mg/kg/injection, schedule: Q01DX009 (ip), vehicle: Klucel (hydroxypropylcellulose) (HPC)
smiles,measurement,setting,value
COC(=O)CNc1ccc(S(=O)(=O)c2ccc(N)cc2)cc1,T/C,[1],103 % of control
same,T/C,[2],106 % of control
same,T/C,[3],120 % of control
CCOC(=O)N1CCc2nc3ccc(Cl)cc3cc21,T/C,[4],113 % of control
same,T/C,[5],111 % of control
same,T/C,[6],124 % of control
same,T/C,[7],106 % of control
CCOC(=O)C(=CN1CCCCCC1)C(=O)OCC,T/C,[6],102 % of control
same,T/C,[8],97 % of control
same,T/C,[7],101 % of control
same,T/C,[9],95 % of control
same,T/C,[10],92 % of control
CC(=O)C(=O)NC1/C=C(C)\C=C/C(O)C/C=C(C)\C=C/C(O)CC2OC(=O)C1(C)C(=O)C2C (configuration not stated),T/C,[11],100 % of control
same,T/C,[12],118 % of control
same,T/C,[1],117 % of control
same,T/C,[2],112 % of control
O=C(Nc1ccc(N=C=S)cc1Cl)c1cc(Cl)cc(Cl)c1O,T/C,"dose: 6.25 mg/kg/injection, schedule: Q01DX009 (ip), vehicle: Klucel (hydroxypropylcellulose) (HPC)",104 % of control
same,T/C,"dose: 12.5 mg/kg/injection, schedule: Q01DX009 (ip), vehicle: Klucel (hydroxypropylcellulose) (HPC)",102 % of control and 111 % of control
same,T/C,[11],110 % of control and 111 % of control
same,T/C,[12],108 % of control and 118 % of control
O=C(/C=C/C(=O)Oc1c(Cl)c(Cl)c(Cl)c(Cl)c1Cl)Oc1c(Cl)c(Cl)c(Cl)c(Cl)c1Cl,T/C,[1],86 % of control
Cc1cc(Cl)ccc1NS(=O)(=O)c1ccccc1,T/C,[1],88 % of control
same,T/C,[2],88 % of control
COc1ccccc1NC(=O)Oc1ccc(-c2ccccc2)cc1Br,T/C,[1],100 % of control
same,T/C,[13],100 % of control
same,T/C,[2],96 % of control
same,T/C,[14],90 % of control
same,T/C,[3],96 % of control
same,T/C,[15],96 % of control
CC(CN1c2ccccc2Sc2cccnc21)N(C)C (configuration not stated),T/C,"dose: 3.12 mg/kg/injection, schedule: Q01DX009 (ip), vehicle: saline",97 % of control
same,T/C,"dose: 6.25 mg/kg/injection, schedule: Q01DX009 (ip), vehicle: saline",107 % of control
same,T/C,"dose: 12.5 mg/kg/injection, schedule: Q01DX009 (ip), vehicle: saline",112 % of control
same,T/C,"dose: 25.0 mg/kg/injection, schedule: Q01DX009 (ip), vehicle: saline",109 % of control
same,T/C,"dose: 50.0 mg/kg/injection, schedule: Q01DX009 (ip), vehicle: saline",100 % of control
COc1ccc(C(=O)C(C)Br)c(OCc2ccccc2)c1OC (configuration not stated),T/C,[6],95 % of control
same,T/C,[8],94 % of control
same,T/C,[7],87 % of control
same,T/C,[9],100 % of control
same,T/C,[10],97 % of control
C/C=C(\CC)C(=O)NC(N)=O,T/C,"dose: 12.5 mg/kg/injection, schedule: Q04DX003 (ip), vehicle: Klucel (hydroxypropylcellulose) (HPC)",93 % of control
same,T/C,"dose: 25.0 mg/kg/injection, schedule: Q04DX003 (ip), vehicle: Klucel (hydroxypropylcellulose) (HPC)",100 % of control
same,T/C,"dose: 50.0 mg/kg/injection, schedule: Q04DX003 (ip), vehicle: Klucel (hydroxypropylcellulose) (HPC)",93 % of control
same,T/C,[14],95 % of control
C=C(C)C(=O)OCC12CCC(C)=CC1OC1C(O)C(OC(=O)CCl)C2(C)C12CO2 (configuration not stated),T/C,"dose: 0.25 mg/kg/injection, schedule: Q01DX009 (ip), vehicle: water",122 % of control
same,T/C,"dose: 0.5 mg/kg/injection, schedule: Q01DX009 (ip), vehicle: water",124 % of control
same,T/C,"dose: 1.0 mg/kg/injection, schedule: Q01DX009 (ip), vehicle: water",152 % of control
same,T/C,"dose: 2.0 mg/kg/injection, schedule: Q01DX009 (ip), vehicle: water",152 % of control
O=C(NC(=O)C(Cl)Cl)OC1c2cc(Cl)ccc2-c2c(Cl)cc(Cl)cc21 (configuration not stated),T/C,"dose: 3.0 mg/kg/injection, schedule: Q01DX009 (ip), vehicle: saline with Tween-80",93 % of control
same,T/C,"dose: 6.0 mg/kg/injection, schedule: Q01DX009 (ip), vehicle: saline with Tween-80",97 % of control
same,T/C,"dose: 12.0 mg/kg/injection, schedule: Q01DX009 (ip), vehicle: saline with Tween-80",86 % of control
O=S(=O)(OCC(F)(F)F)c1ccccc1,T/C,[12],109 % of control
same,T/C,[1],100 % of control
same,T/C,[2],97 % of control
O=C(CCN1CC1)OC1CCCC1,T/C,"dose: 0.75 mg/kg/injection, schedule: Q01DX009 (ip), vehicle: Klucel (hydroxypropylcellulose) (HPC)",111 % of control
same,T/C,"dose: 1.5 mg/kg/injection, schedule: Q01DX009 (ip), vehicle: Klucel (hydroxypropylcellulose) (HPC)",105 % of control
same,T/C,"dose: 3.0 mg/kg/injection, schedule: Q01DX009 (ip), vehicle: Klucel (hydroxypropylcellulose) (HPC)",108 % of control
O=C(Cc1ccc2cc3c(cc2c1)OCO3)NCCc1ccc2c(c1)OCO2,T/C,[1],105 % of control
same,T/C,[2],94 % of control
same,T/C,[3],91 % of control
CCCCNC(C)(C)COC(=O)/C=C/c1ccc(OCCCC)cc1,T/C,"dose: 12.5 mg/kg/injection, schedule: Q01DX009 (ip), vehicle: saline sonified",97 % of control
same,T/C,"dose: 25.0 mg/kg/injection, schedule: Q01DX009 (ip), vehicle: saline sonified",97 % of control
same,T/C,"dose: 50.0 mg/kg/injection, schedule: Q01DX009 (ip), vehicle: saline sonified",104 % of control
same,T/C,"dose: 100.0 mg/kg/injection, schedule: Q01DX009 (ip), vehicle: saline sonified",93 % of control
CCCCOC(=O)c1ccc(NC(=O)Nc2ccccc2)cc1,T/C,[4],93 % of control
same,T/C,[5],98 % of control
same,T/C,[6],93 % of control
CCCCCCN(CCCCCC)CC(O)c1ccc2c3c(cccc13)CC2 (configuration not stated),T/C,[12],105 % of control
same,T/C,[1],98 % of control
same,T/C,[2],101 % of control
COc1ccc(COC=O)cc1,T/C,[1],100 % of control
same,T/C,[2],109 % of control
same,T/C,[3],106 % of control
Cc1cccc(C2CCCC2c2ccccc2)c1 (configuration not stated),T/C,[16],88 % of control
same,T/C,[17],97 % of control
same,T/C,"dose: 300.0 mg/kg/injection, schedule: Q01DX009 (ip), vehicle: Klucel (hydroxypropylcellulose) (HPC)",100 % of control
C[N+]1=CN(c2ccc(Cl)cc2)Cc2cc(Cl)ccc21,T/C,[1],88 % of control
same,T/C,[13],88 % of control
same,T/C,[2],86 % of control
same,T/C,[14],102 % of control
same,T/C,[3],102 % of control
same,T/C,[15],100 % of control
COc1ccc(-c2c(N)nc(=S)[nH]c2C(=O)O)cc1,T/C,[12],94 % of control
same,T/C,[1],105 % of control
same,T/C,[2],94 % of control
CCC(C)Sc1nc(N)nc2c1ncn2C1OC(CO)C(O)C1O (configuration not stated),T/C,"dose: 37.5 mg/kg/injection, schedule: Q01DX009 (ip), vehicle: Klucel (hydroxypropylcellulose) (HPC)",113 % of control
same,T/C,[16],99 % of control
same,T/C,[17],89 % of control
C=C(C)[C@@]12O[C@@]3(/C=C/C=C/CCCCC)O[C@@H]1[C@@H]1[C@@H]4O[C@]4(COC(=O)CCCCCCCCCCCCCCC)[C@@H](O)[C@]4(O)C(=O)C(C)=CC4[C@@]1(O3)[C@H](C)[C@H]2OC(=O)c1ccccc1 (some centres not stated),T/C,"dose: 0.5 micrograms/kg/injection, schedule: Q01DX009 (ip), vehicle: saline",102 % of control
same,T/C,"dose: 1.0 micrograms/kg/injection, schedule: Q01DX009 (ip), vehicle: saline",106 % of control
same,T/C,"dose: 1.9 micrograms/kg/injection, schedule: Q01DX009 (ip), vehicle: saline",105 % of control
same,T/C,"dose: 3.8 micrograms/kg/injection, schedule: Q01DX009 (ip), vehicle: saline",99 % of control
same,T/C,"dose: 7.5 micrograms/kg/injection, schedule: Q01DX009 (ip), vehicle: saline",102 % of control
same,T/C,"dose: 15.0 micrograms/kg/injection, schedule: Q01DX009 (ip), vehicle: saline",103 % of control
same,T/C,"dose: 30.0 micrograms/kg/injection, schedule: Q01DX009 (ip), vehicle: saline",104 % of control
Cc1cc(=O)c2c(=O)[nH][nH]c2[nH]1,T/C,[5],100 % of control
same,T/C,[6],95 % of control
same,T/C,[7],88 % of control
